Experimental data as given in US9701646B2, “Small molecule inhibitors of PI3-kinase signaling” (Tufts University, priority 2013, dated 2017).
Like-named read-outs stand apart in the source and are kept apart here.

How the values were obtained:
[1] = system: A2780 human ovarian cancer cells; test: Cell viability of A2780 cells, ATP assay; type: cell-based; conditions: for concentration at which cell viability was reduced by at least 50 percent / cell viability in combination with TRAIL / EC50: A2780, 24 h; for concentration at which cell viability was reduced by at least 50 percent: alone; for cell viability in combination with TRAIL: versus compound alone; for EC50: Homo sapiens
Method: (§1) A2780 human ovarian cancer cells were maintained in culture at 37° C., 5% CO2, complete medium for 24 h in the presence of various final concentrations of DM-PIT-1, YK-NCL-176, YK-NCL-198, or NK-YCL-240, each in DMSO, with or without 1 μg/mL TRAIL. DMSO alone was used as a negative control. Following the incubation, cell viability was measured using an ATP assay.
as §1, with “YK-NCL-217, YK-NCL-218, NK-YCL-219, YK-NCL-220, YK-NCL-234,” for “YK-NCL-176, YK-NCL-198,”, “YK-NCL-241,” for “NK-YCL-240,”

[2] = system: U87MG human glioblastoma cells; test: Cell viability of U87MG cells, ATP assay; type: cell-based; conditions: for EC50: Homo sapiens, U-87 MG, 24 h
Method: U87MG human glioblastoma cells were maintained in culture at 37° C., 5% CO2, complete medium for 24 h in the presence of various final concentrations of YK-NCL-176, YK-NCL-177, YK-NCL-178, YK-NCL-179, YK-NCL-180, YK-NCL-183, YK-NCL-184, YK-NCL-185, YK-NCL-186, YK-NCL-187, YK-NCL-188, YK-NCL-189, YK-NCL-190, YK-NCL-191, YK-NCL-192, YK-NCL-193, YK-NCL-194, YK-NCL-195, YK-NCL-196, YK-NCL-197, NK-YCL-198, or YK-NCL-199, each in DMSO, with or without 1 μg/mL TRAIL. DMSO alone was used as a negative control. Following the incubation, cell viability was measured using an ATP assay.

[3] = Micellar drug release by dialysis; type: physicochemical; conditions: 37° C., 1×PBS pH 7.4, after 48 h
Method: Drug-loaded micelles were analyzed for their in vitro drug release profile at 37° C. in 1×PBS pH 7.4 over 48 hrs. Micelles were prepared as described previously. 500 μL of drug-loaded micelles were aliquoted into Spectra/Pro® regenerated cellulose dialysis membranes with a MWCO of 1,000 Da and dialyzed against a large excess of 1×PBS pH 7.4. At predetermined times, dialysis bags were opened and aliquots of sample were taken and diluted with 200 μL acetonitrile. Drug concentration was determined by HPLC using previously described methods.

A2780 ovarian carcinoma = test: A2780 cell viability, CellTiter-Blue, free and micellar formulations; type: cell-based, human; conditions: for cytotoxicity as free compound compared to DM-PIT-1: A2780, 24 h
Method: Cell viability of A2780 ovarian carcinoma was measured using CellTiter-Blue® (Promega, Madison, Wis.) viability assay. Briefly, cells were seeded in 96-well plates according to proper cell densities (3,000-5,000 cells). After 24 h incubation in 5% CO2 at 37° C., cells were treated with formulations at various concentrations for 24 h in serum complete media. After 24 h treatment, media was removed, the wells were washed with serum complete media and replaced with 50 μL media and 10 μL CellTiter-Blue®. Cell viability was evaluated after 4 h of incubation at 37° C. at 5% CO2 by measuring the fluorescence (ex. 550 nm, em. 590 nm) using a Synergy HT multi-detection microplate reader (Biotek, Winooski, Vt.).

[4] = system: T47D human breast cancer cells; test: Cell viability of T47D cells; type: cell-based
[5] = system: DU145 human prostate cancer cells; test: Cell viability of DU145 cells; type: cell-based
A2780 cells = test: In vitro wound closure (cell migration), A2780; type: cell-based, human; conditions: A2780, up to 76 h
Method: A2780 cells and T47D cells were grown to confluence in separate cultures under conditions of 37° C., 5% CO2, and complete medium. At time zero, a pipette tip was dragged across the cells, producing a linear defect in the confluent layer of cells. Medium was then supplemented with various concentrations of DM-PIT-1, YK-NCL-176, or YK-NCL-240, or an equivalent volume of DMSO alone, and cells were maintained in culture for an additional 76 h. Linear defects were viewed with a microscope at 0, 21, 47, 69, and 76 h following addition of test agent, and the width of the defect was quantitated at each time point. This in vitro assay represents a model of wound closure.

Akt PH domain = Akt PH domain (Homo sapiens, UniProt P31749); test: Inhibition of Akt PH domain binding to PIP3; conditions: in vitro
[6] = mouse, in vivo
[7] = in DMSO, without TRAIL, read-out: EC50 alone
[8] = with 1 μg/mL TRAIL, read-out: EC50 with TRAIL

Chain of Akt PH domain (P31749 5-108 limits assumed): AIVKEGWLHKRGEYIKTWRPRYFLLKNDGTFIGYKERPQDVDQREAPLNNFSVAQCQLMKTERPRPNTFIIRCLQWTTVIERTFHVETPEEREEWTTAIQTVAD

Oc1ccc(Cl)cc1-n1cc(C(O)(c2cc(C(F)(F)F)cc(C(F)(F)F)c2)c2cn(-c3cc(Cl)ccc3O)nn2)nn1 [YK-NCL-198, 2,2′-(((3,5-Bis(trifluoromethyl)phenyl)(hydroxy)methylene)bis(1H-1,2,3-triazole-4,1-diyl))bis(4-chlorophenol)]
concentration at which cell viability was reduced by at least 50 percent [1]: 12.5 µM
cell viability in combination with TRAIL ([1]; with 1 μg/mL TRAIL): further reduced cell viability
EC50 [2, 7]: 34.8 µM
EC50 [2, 8]: 18.8 µM
drug released from micelles [3]: 40%
cytotoxicity as free compound compared to DM-PIT-1 (A2780 ovarian carcinoma): improved cytotoxicity properties
melting point: 214 °C

O=C(c1cc(C(F)(F)F)cc(C(F)(F)F)c1)c1cn(-c2cc(Cl)ccc2O)nn1 [YK-NCL-240, (3,5-Bis(trifluoromethyl)phenyl)(1-(5-chloro-2-hydroxyphenyl)-1H-1,2,3-triazol-4-yl)methanone]
concentration at which cell viability was reduced by at least 50 percent [1]: < 6.25 µM
cell viability in combination with TRAIL ([1]; with 1 μg/mL TRAIL): further reduced cell viability
improvement of EC50 compared to DM-PIT-1 alone ([1]; A2780, alone): 15 fold
improvement of EC50 compared to the combination of DM-PIT-1 and TRAIL ([1]; A2780, with TRAIL): 20 fold
EC50 [1, 7]: 1850 nM
EC50 [1, 8]: 1110 nM
effect of combination with TRAIL on cell viability ([2]; 1 μg/mL TRAIL): synergistic effect
in vitro cell viability ([2]; in DMSO, alone): reduce in vitro cell viability
effect of combination with TRAIL on cell viability ([4]; 1 μg/mL TRAIL): synergistic effect
in vitro cell viability ([4]; in DMSO, alone): reduce in vitro cell viability
effect of combination with TRAIL on cell viability ([5]; DU145, 1 μg/mL TRAIL): synergistic effect
in vitro cell viability ([5]; DU145, in DMSO, alone): reduce in vitro cell viability
inhibition of cell migration (wound closure) (A2780 cells): significantly more effectively than either DM-PIT-1 or YK-NCL-176
binding of the Akt PH domain to PIP3 (Akt PH domain): robustly inhibited
drug released from micelles [3]: 60%
cytotoxicity as free compound compared to DM-PIT-1 (A2780 ovarian carcinoma): improved cytotoxicity properties
cytotoxicity on addition of TRAIL to the formulation (A2780 ovarian carcinoma; A2780, micellar formulation plus TRAIL): markedly increased cytotoxicity
non-toxic dose [6]: up to 50 mg/kg
